Where two headings read alike, the source gives them in different places.
Protocol: The 20 mg/mL formulation was further diluted to 6 mg/mL in 5% dextrose. […] At 0h, 24h, 1, 2, 3, 4, and 5 weeks samples were chromatographically analyzed by diluting the drugs to 1 mg/mL with 5% dextrose and then mixing 1:1 with acetonitrile. The chromatographic system consisted of a Shimadzu LC100 system with a UV detector. The column used was an Inertsil-ODS2, 150 ×4.6 mm (5 micron particle size) from Keystone Scientific (Bellefonte, Pa.). 20 μL of each sample was injected and read at 227 nm at ambient temperature. […] The constant flow rate was 1 mL/min.

CCCCCCCCCCCCCC[C@@H](Br)C(=O)O[C@@H](C(=O)O[C@H]1C[C@@]2(O)[C@@H](OC(=O)c3ccccc3)[C@@H]3[C@]4(OC(C)=O)CO[C@@H]4C[C@H](O)[C@@]3(C)C(=O)[C@H](OC(C)=O)C(=C1C)C2(C)C)[C@@H](NC(=O)c1ccccc1)c1ccccc1 [BrC16HT, 2′-(R)-[2-bromohexadecanoyl] paclitaxel]
Percentage of BrC16HT in Sample (6 mg/mL in Crem/EtOH (50:50), undiluted, storage 4° C., 0 h): 93% | Percentage of BrC16HT in Sample (6 mg/mL in Crem/EtOH (50:50), undiluted, storage 4° C., 1 Week): 83% | Percentage of BrC16HT in Sample (6 mg/mL in Crem/EtOH (50:50), undiluted, storage 4° C., 2 Week): 93% | Percentage of BrC16HT in Sample (6 mg/mL in Crem/EtOH (50:50), undiluted, storage 4° C., 3 Week): 61% | Percentage of BrC16HT in Sample (6 mg/mL in Crem/EtOH (50:50), undiluted, storage 4° C., 4 Week): 58% | Percentage of BrC16HT in Sample (6 mg/mL in Crem/EtOH (50:50), undiluted, storage 4° C., 5 Week): 53% | Percentage of BrC16HT in Sample (6 mg/mL in Crem/EtOH (50:50), undiluted, storage 4° C., 24 h): 89% | Percentage of BrC16HT in Sample (6 mg/mL in Crem/EtOH (50:50), undiluted, storage 26° C., 0 h): 95% | Percentage of BrC16HT in Sample (6 mg/mL in Crem/EtOH (50:50), undiluted, storage 26° C., 1 Week): 42% | Percentage of BrC16HT in Sample (6 mg/mL in Crem/EtOH (50:50), undiluted, storage 26° C., 2 Week): 22% | Percentage of BrC16HT in Sample (6 mg/mL in Crem/EtOH (50:50), undiluted, storage 26° C., 3 Week): 14% | Percentage of BrC16HT in Sample (6 mg/mL in Crem/EtOH (50:50), undiluted, storage 26° C., 4 Week): 8% | Percentage of BrC16HT in Sample (6 mg/mL in Crem/EtOH (50:50), undiluted, storage 26° C., 5 Week): 5% | Percentage of BrC16HT in Sample (6 mg/mL in Crem/EtOH (50:50), undiluted, storage 26° C., 24 h): 84% | Percentage of BrC16HT in Sample (20 mg/mL in Crem/EtOH (50:50) diluted with 5% dextrose to 6 mg/mL, storage 4° C., 0 h): 92% | Percentage of BrC16HT in Sample (20 mg/mL in Crem/EtOH (50:50) diluted with 5% dextrose to 6 mg/mL, storage 4° C., 1 Week): 90% | Percentage of BrC16HT in Sample (20 mg/mL in Crem/EtOH (50:50) diluted with 5% dextrose to 6 mg/mL, storage 4° C., 2 Week): 88% | Percentage of BrC16HT in Sample (20 mg/mL in Crem/EtOH (50:50) diluted with 5% dextrose to 6 mg/mL, storage 4° C., 3 Week): 83% | Percentage of BrC16HT in Sample (20 mg/mL in Crem/EtOH (50:50) diluted with 5% dextrose to 6 mg/mL, storage 4° C., 4 Week): 85% | Percentage of BrC16HT in Sample (20 mg/mL in Crem/EtOH (50:50) diluted with 5% dextrose to 6 mg/mL, storage 4° C., 5 Week): 82% | Percentage of BrC16HT in Sample (20 mg/mL in Crem/EtOH (50:50) diluted with 5% dextrose to 6 mg/mL, storage 4° C., 24 h): 91% | Percentage of BrC16HT in Sample (20 mg/mL in Crem/EtOH (50:50) diluted with 5% dextrose to 6 mg/mL, storage 26° C., 0 h): 97% | Percentage of BrC16HT in Sample (20 mg/mL in Crem/EtOH (50:50) diluted with 5% dextrose to 6 mg/mL, storage 26° C., 1 Week): 93% | Percentage of BrC16HT in Sample (20 mg/mL in Crem/EtOH (50:50) diluted with 5% dextrose to 6 mg/mL, storage 26° C., 2 Week): 90% | Percentage of BrC16HT in Sample (20 mg/mL in Crem/EtOH (50:50) diluted with 5% dextrose to 6 mg/mL, storage 26° C., 3 Week): 81% | Percentage of BrC16HT in Sample (20 mg/mL in Crem/EtOH (50:50) diluted with 5% dextrose to 6 mg/mL, storage 26° C., 4 Week): 88% | Percentage of BrC16HT in Sample (20 mg/mL in Crem/EtOH (50:50) diluted with 5% dextrose to 6 mg/mL, storage 26° C., 5 Week): 87% | Percentage of BrC16HT in Sample (20 mg/mL in Crem/EtOH (50:50) diluted with 5% dextrose to 6 mg/mL, storage 26° C., 24 h): 99%

Reference: patent publication US6482850B2, “Hydrolysis-promoting hydrophobic taxane derivatives” (priority 1995, dated 2002)
